Test results published in patent US10774114B2, “Respiratory syncytial virus (RSV) replication inhibitors” (priority 2014, dated 2020).
Where a SMILES comes first, the peptide text is derived from it. Bridges are numbered along the chain shown (N, C = ends). [ ]: non-standard residue; d: D form. R8 = C=CCCCCCC[C@@](C)(N)C(=O)O; R5 = C=CCCC[C@@](C)(N)C(=O)O; S5 = C=CCCC[C@](C)(N)C(=O)O

Tests used:
RSV-mCherry virus = conditions: read-out: EC50, inhibition of viral replication; Hep2 cells infected with RSV-mCherry, peptides added post-infection, fluorescence read at 48 h
Experimental: HEp-2 cells were seeded in 96 well plates and infected with 500 PFU of rHRSV-Cherry virus. Following viral infection, cells were incubated in the presence of serial dilutions of stapled peptides. The red fluorescence was read at 48 h post infection by automatic counting.
rHRSV-mCherry Inhibition Assay.
HEp-2 cells were seeded at 5×10^4 cells per well in 96 well plates the day before and infected for 2 hours with 500 PFU of RSV-mCherry. The medium was then changed against MEM without phenol red medium containing dilutions of peptides. Each point of peptide dilution was made in duplicate. Plates were incubated 48 h at 37° C. and mCherry fluorescence measurement was performed using a spectrofluorometer (Tecan infinite M200PRO) with excitation and emission wavelengths of 580 and 620 nm, respectively (expressed in relative fluorescence units RFU). Non-infected HEp-2 cells were used as standards for fluorescence background levels.
Next the potential activity of stapled peptides was tested on infected cells. Hep2 cells were infected with a RSV-mCherry virus engineered by reverse genetics (Rameix-Welti et al, Nat Comm., 2014), and increasing concentrations of stapled peptides were added post-infection to study their effect on viral replication.

in vitro = assay type: cell-based; conditions: human
Experimental: (§1) HEp-2 (ATCC number CCL-23) and BHK-21 (clone BSRT7/5) cells were maintained in Eagle's miminum essential medium (EMEM) and Dulbecco's modified Eagle's medium (DMEM), respectively, supplemented with 10% FCS, 2 mM L-glutamine, and penicillin-streptomycin solution. The cells were grown in an incubator at 37° C. in 5% CO2. Cytotoxicity assays were done with the CellTiter-Glo Luminescent cell viability assay (Promega). Cells were transfected using Lipofectamine 2000 (Invitrogen, Cergy-Pontoise, France) as described by the manufacturer.

rHRSV-Luc = assay: In vivo mice luciferase assay (rHRSV-Luc-infected mice); conditions: intranasal, 0.6 mg/ml, 50 μL in PBS, repeated at days 2 and 4; 6x10^4 PFU rHRSV-Luc
Description: In Vivo Mice Luciferase Assay.
Female BALB/c mice were purchased from the Centre d'ElevageR. Janvier (Le Genest Saint-Isle, France) and were used around 8 weeks of age. Mice strains were bred in a pathogen-free animal facility. Mice were fed normal mouse chow and water ad libitum and were raised and housed under standard conditions with air filtration. For infection experiments, mice were housed in cages inside stainless steel isolation cabinets that were ventilated under negative pressure with high-efficiency particulate air-filtered air. Mice were anesthetized by a mixture of ketamine and xylazine (1 and 0.2 mg per mouse, respectively) and infected IN with 50 μl of PBS containing 6×10^4 PFU of rHRSV-Luc. Body temperature and body weight were monitored at days 3-10. For in vivo imaging, mice were anesthetized. Alternatively, mice were killed at different time points, and lungs were then collected. For each time point, experiments were done in quadruplicate. […] Oral treatments were administered 1 h prior to RSV inoculation and then once on day 2 and on day 4. This experiment was repeated once.

Hep2 cells = assay: in vitro; assay type: cell-based; conditions: at a concentration of 100 μM
Experimental: as §1

[1] = Far-UV CD spectroscopy (alpha-helical content); assay type: physicochemical; conditions: 10 mM phosphate buffer, pH 7.5
Experimental: FIGS. 7A-7C: Far-UV CD spectra of stapled peptides in 10 mM phosphate buffer, pH 7.5. […] HEVS 115-129.
CD experiments were performed on a Jasco-810 or on a Chirascan spectropolarimeter in a thermostated cell holder at 20° C. The samples were prepared in 10 mM phosphate buffer, pH 7.5, at a peptide concentration of 25 μM for HEVS 73-79 or […] for the other peptides. The far-UV spectra were recorded at 25° C. by step scan from 190 nm to 250 nm with a scan rate of 100 nm per min using a bandwidth of 1 nm and an integration time of 1 s. Each spectrum was the average of 5 scans. The spectra were substracted from buffer baseline and smoothed using the FFT filter (Jasco Software, Tokyo, Japan). The data were converted to per residue molar ellipticity units [Θ] (deg.cm^2.dmol^−l.residue^−1). The percentage of helicity was calculated as follows:
[formula] whereby CD222=molar ellipticity [e] at 222 nm in [mdeg], N=number of amino acids in the peptide and C=peptide molar concentration [mol/1].

Row | Molecule | EC50 (RSV-mCherry virus) | also measured
1 | CC[C@H](C)[C@H](NC(=O)[C@]1(C)CCCC=CCCCCCC[C@@](C)(NC(=O)[C@H](CC(N)=O)NC(=O)[C@H](CC(N)=O)NC(=O)[C@H](C)NC(=O)[C@H](CC(=O)O)NC(=O)[C@H](CCC(=O)O)NC(C)=O)C(=O)N[C@@H](C)C(=O)N[C@@H]([C@@H](C)O)C(=O)N[C@@H](CCCCN)C(=O)N[C@@H](Cc2ccccc2)C(=O)N[C@@H](CC(C)C)C(=O)N[C@@H](CCC(=O)O)C(=O)N1)C(=O)N[C@@H](CCCCN)C(=O)NCC(=O)N[C@@H](CCCCN)C(=O)N[C@@H](Cc1ccccc1)C(=O)N[C@@H](C)C(=O)N[C@@H](CO)C(N)=O [HEVS 77, EDANNR8ATKFLES5IKGKFAS] (Ac-EDANN[R8]ATKFLE[S5]IKGKFAS-NH2; staple 6-13) | 60 µM | 
2 | CC[C@H](C)[C@@H]1NC(=O)[C@@](C)(NC(=O)[C@H](CCC(=O)O)NC(=O)[C@H](CC(C)C)NC(=O)[C@H](Cc2ccccc2)NC(=O)[C@H](CCCCN)NC(=O)[C@@H](NC(=O)[C@H](C)NC(=O)[C@H](CCCCN)NC(=O)[C@H](CC(N)=O)NC(=O)[C@H](CC(N)=O)NC(=O)[C@H](C)NC(=O)[C@H](CC(=O)O)NC(=O)[C@H](CCC(=O)O)NC(C)=O)[C@@H](C)O)CCCC=CCCC[C@@](C)(C(=O)N[C@@H](Cc2ccccc2)C(=O)N[C@@H](C)C(=O)N[C@@H](CO)C(N)=O)NC(=O)CNC(=O)[C@H](CCCCN)NC1=O [HEVS 78] (Ac-EDANNKATKFLE[S5]IKG[S5]FAS-NH2; staple 13-17) | 15 µM | CC50 (in vitro): ~40 µM
3 | CC[C@H](C)[C@@H]1NC(=O)[C@](C)(NC(=O)[C@H](CCC(=O)O)NC(=O)[C@H](CC(C)C)NC(=O)[C@H](Cc2ccccc2)NC(=O)[C@H](CCCCN)NC(=O)[C@@H](NC(=O)[C@H](C)NC(=O)[C@H](CCCCN)NC(=O)[C@H](CC(N)=O)NC(=O)[C@H](CC(N)=O)NC(=O)[C@H](C)NC(=O)[C@H](CC(=O)O)NC(=O)[C@H](CCC(=O)O)NC(C)=O)[C@@H](C)O)CCCCCCC=CCCC[C@@](C)(C(N)=O)NC(=O)[C@H](C)NC(=O)[C@H](Cc2ccccc2)NC(=O)[C@H](CCCCN)NC(=O)CNC(=O)[C@H](CCCCN)NC1=O [HEVS 79] (Ac-EDANNKATKFLE[R8]IKGKFA[S5]-NH2; staple 13-20) | ~80 µM | 
4 | CC[C@H](C)[C@H](NC(=O)[C@]1(C)CCCC=CCCCCCC[C@@](C)(NC(=O)[C@H](CC(N)=O)NC(=O)[C@H](CC(N)=O)NC(=O)[C@H](C)NC(=O)[C@H](CC(=O)O)NC(=O)[C@H](CCC(=O)O)NC(=O)CNC(=O)[C@H](Cc2c[nH]cn2)NC(=O)[C@H](Cc2ccccc2)NC(=O)[C@H](CCC(=O)O)NC(C)=O)C(=O)N[C@@H](C)C(=O)N[C@@H]([C@@H](C)O)C(=O)N[C@@H](CCCCN)C(=O)N[C@@H](Cc2ccccc2)C(=O)N[C@@H](CC(C)C)C(=O)N[C@@H](CCC(=O)O)C(=O)N1)C(=O)N[C@@H](CCCCN)C(=O)NCC(=O)N[C@@H](CCCCN)C(=O)N[C@@H](Cc1ccccc1)C(=O)N[C@@H](C)C(=O)N[C@@H](CO)C(N)=O [HEVS 124] | 11 µM | luciferase activity (bioluminescence) in treated mice (rHRSV-Luc): significant reduction
5 | CC[C@H](C)[C@H](NC(=O)[C@]1(C)CCCC=CCCCCCC[C@@](C)(NC(=O)[C@H](CC(N)=O)NC(=O)[C@H](CC(N)=O)NC(=O)[C@H](C)NC(=O)[C@]2(C)CCCC=CCCC[C@@](C)(NC(=O)[C@H](Cc3ccccc3)NC(=O)[C@H](CCC(=O)O)NC(C)=O)C(=O)NCC(=O)N[C@@H](CCC(=O)O)C(=O)N2)C(=O)N[C@@H](C)C(=O)N[C@@H]([C@@H](C)O)C(=O)N[C@@H](CCCCN)C(=O)N[C@@H](Cc2ccccc2)C(=O)N[C@@H](CC(C)C)C(=O)N[C@@H](CCC(=O)O)C(=O)N1)C(=O)N[C@@H](CCCCN)C(=O)NCC(=O)N[C@@H](CCCCN)C(=O)N[C@@H](Cc1ccccc1)C(=O)N[C@@H](C)C(=O)N[C@@H](CO)C(N)=O [HEVS 126, EFR5GES5ANNR8ATKFLES5IKGKFAS] (Ac-EF[R5]GE[S5]ANN[R8]ATKFLE[S5]IKGKFAS-NH2; staple 3-6, 10-17) | 3.5 µM | cytotoxicity (Hep2 cells): cytotoxic
6 | EDANNKATKFLESIKGKFAS [HEVS 73] |  | folding state by far UV CD [1]: largely unfolded
